Measured values taken from patent US20040154048A1, “Activation of nuclear transfer embryos” (priority 2001, published 2004).
Marks after values point to notes of the source that are not given here.

Legend:
[1] = system: porcine oocytes; conditions: ionomycin increased from 5 μM to 15 μM, low calcium levels; cited from earlier work
[2] = system: IVM porcine oocytes; assay: Parthenogenetic activation of IVM porcine oocytes, development to blastocyst; type: cell-based; conditions: 5 μM ionomycin 5 min in mTALP-PVA, 6-DMAP +
Method: The preparation of in vitro matured (IVM) oocytes was essentially as described previously (Grupen et al, (1997) Reproduction Fertility Development 9:571-575). Ovaries from slaughtered prepubertal gilts were transported to the laboratory in Dulbecco's PBS supplemented with 0.6% (v/v) of an antibiotic solution (CSL Ltd) containing penicillin (10,000 U mL^−1), streptomycin (10,000 μg mL^−1) and fungizone (25 μg mL^−1) and maintained at 38° C. Antral follicles ([…] in diameter) were aspirated using a 21-gauge needle through which constant suction (1 L min^−1) was applied. The follicular contents were pooled in a collection tube. Cumulus-oocyte complexes (COCs) with at least three uniform layers of compact cumulus cells were recovered from the collected fluid, washed three times in OMM199a, transferred to 50 μl droplets (25 COCs per droplet) of OMM199a covered with mineral oil in a petrie dish (Becton Dickinson and Company, Plymouth, England) and incubated at 38.5° C. in a humidified atmosphere of 5% CO2 in air. After twenty two hours of maturation, expanded COCs were washed once in OMM199 without dibutyryl cAMP (OMM199b), transferred to 50 μl droplets of OMM199b and incubated for a further twenty four hours. At the end of the forty six hours maturation interval, the oocytes were treated with 0.5 mg mL^−1 hyaluronidase for one minute and then gently aspirated with a small bore glass pipette to remove the cumulus cells. Oocytes that had extruded a polar body were washed and kept in culture medium prior to activation.
The experiments hereafter were conducted with oocytes rather than nuclear transfer embryos. These experiments are termed parthenogenetic, since they are done without fertilized embryos. Parthenogenetic experiments are used routinely as a model system to investigate NT, largely because of the expense and additional experimental manipulation involved with NT embryos. Parthenogenetic experiments provide very useful information for the development of NT technology, and are directly predictive of NT outcomes.
Oocytes were activated forty six to forty eight hours after the start of maturation. Denuded oocytes that had extruded a polar body were washed and kept in modified TALP-PVA medium supplemented with 3.0 mM Ca-lactate (mTALP-PVA) for approximately one hour prior to activation. Oocytes were transferred to mTALP-PVA containing 5 μM ionomycin for five minutes. Oocytes were then washed twice and incubated in culture medium containing 2 mM 6-DMAP for three hours. The 6-DMAP treated oocytes were then washed twice and transferred to 50 μl droplets of the culture medium under mineral oil. In the ionomycin * treatment oocytes were not washed in media containing 6-DMAP.

In the case of `C[C@H](CCC(=O)O)C[C@H](C)C[C@H](C)C(=O)/C=C(\O)[C@H](C)C[C@H](C)C/C=C/[C@@H](C)[C@@H](O)[C@@H](C)[C@@H](O)C[C@@H]1CC[C@@](C)([C@H]2CC[C@@](C)([C@@H](C)O)O2)O1` [Ionomycin, ionomycin], the “oocytes developing parthenogenetically to blastocyst stage” value [1] is listed as 23%, the “Percentage developing to blastocyst, Day 6” value [2] is listed as 49^c % and the “Percentage developing to blastocyst, Day 6” value ([2]; listed as Ionomycin*) is listed as 1^d %. The “Percentage developing to blastocyst, Day 7” value [2] was 51^c % and the “Percentage developing to blastocyst, Day 7” value ([2]; listed as Ionomycin*) was 1^d %.
